Measurements as given in patent US20230250054A1, “SELECTIVE HISTONE DEACETYLASE 6 INHIBITORS” (The Board of Trustees of the University of Illinois, priority 2020, published 2023).
“Also recorded” adds a separate entry of the source.

Experiments:
[1] = system: Ac-α-tubulin; assay: Immunoblot of Ac-α-tubulin in RAW 264.7 macrophages; type: cell-based; conditions: 1, 5, and 10 μM, overnight, listed as Suprastat
Experimental: (§1) The SM1 murine melanoma cells were obtained from Dr. A. Ribas at the University of California, Los Angeles. WM164 human melanoma cells were obtained from ATCC. The cells were cultured in an incubator in RPMI 1640, 1% penicillin-streptomycin, and 10% fetal bovine serum at 37° C. with 5% CO2. […] For STAT3 phosphorylation assays, cells were pre-treated with or without HDAC6i (5 μM) for overnight followed by treatment with recombinant human IL-6 (Biolegend) for 20 min. PBS was added as a control. RAW 264.7 macrophages were purchased from ATCC and cultured in DMEM medium supplemented with 10% FBS, 1% non-essential amino acids, and 2-mercaptoethanol (50 μM). […] Cytotoxicity assay was performed using CellTox Green (Promega, Cat #G8731) following the manufacturer's instructions, and fluorescence readings were obtained on Spectramax i3 (Molecular Devices) multimode plate reader at wavelengths EX 485 nm and EM 520 nm. […]
(§2) The cells were harvested and lysed with RIPA buffer (ThermoScientific, 89900) containing protease and phosphatase inhibitors (ThermoScientific, 78440) by sonication in Bioruptor (Diagenode) for 8 cycles of 30 seconds ON and 30 seconds OFF on high setting. To assess the expression of proteins, total protein samples were heat-denatured in SDS sample loading buffer, and 15-20 μg of protein was analysed on 4-20% SDS-PAGE gels (Bio-Rad, 456-1093). […]

[2] = system: SM1 melanoma tumors; assay: Syngeneic SM1 murine melanoma model, tumor growth; type: in vivo; conditions: C57BL/6 mice with SM1 tumors; Suprastat 25 mg/kg IP, anti-PD1 15 mg/kg IP; vs control (PBS)
[3] = system: IL10 gene; assay: IL10 gene expression by quantitative PCR in bone marrow-derived macrophages; type: cell-based; conditions: mouse bone marrow-derived macrophages, 5 μM, vs vehicle, mRNA quantification
Experimental: Total RNA was isolated from cells following the manufacturer's instructions of QIAzol (Qiagen, 79306). RNA quantification was done using NanoDrop One spectrophotometer (NanoDrop Technologies). Samples with absorbance at 260/280 ratios over 1.9 were used for cDNA synthesis with iScript cDNA synthesis kit (Bio-Rad, 1708891). Synthesized cDNA from 1 μg of total RNA was diluted 1:10 with nuclease-free water. The quantitative PCR analysis was performed using iQ SYBR Green Supermix (Bio-Rad, 1708882) on CFX96 real-time system (Bio-Rad). Gene expression analysis was performed using 2^−ΔΔCt method, and target mRNA levels were normalized to GAPDH expression. Cycling conditions were used as per manufacturer's instructions. Single PCR product amplification was confirmed by melting curve analysis in all the experiments performed. The sequence of primers used in the analysis are as follows: […]
Immune cells, such as macrophages, are a major cellular component of the tumor microenvironment. Tumor-associated macrophages are often tumor promoting by secreting anti-inflammatory cytokines such as TGFβ and IL-10. It was previously established that HDAC6 forms a complex with STAT3, and either pharmacological inhibition or shRNA mediated knockdown of HDAC6 decreased STAT3 recruitment at the IL10 promoter region in antigen-presenting cells (see, e.g., Cheng et al., J. Immunol. 193: 2850-2862 (2014)). […]

[4] = system: STAT3; assay: IL-6 induced STAT3 phosphorylation in WM164 melanoma cells; type: cell-based, human; conditions: WM164 cells pre-treated with 5 μM, then IL-6 (30 ng/mL) for 20 min, vs IL-6 alone
Experimental: as §1, §2

[5] = system: Ac-α-tubulin; assay: Immunoblot of Ac-α-tubulin in WM164 melanoma cells; type: cell-based, human; conditions: 0.1 to 10 μM, overnight
Experimental: as §1, §2

[6] = system: SM1 murine melanoma cells; assay: CellTox Green cytotoxicity assay in SM1 cells; type: cell-based; conditions: 24 h
Experimental: The SM1 murine melanoma cells were obtained from Dr. A. Ribas at the University of California, Los Angeles. WM164 human melanoma cells were obtained from ATCC. The cells were cultured in an incubator in RPMI 1640, 1% penicillin-streptomycin, and 10% fetal bovine serum at 37° C. with 5% CO2. […] For STAT3 phosphorylation assays, cells were pre-treated with or without HDAC6i (5 μM) for overnight followed by treatment with recombinant human IL-6 (Biolegend) for 20 min. PBS was added as a control. RAW 264.7 macrophages were purchased from ATCC and cultured in DMEM medium supplemented with 10% FBS, 1% non-essential amino acids, and 2-mercaptoethanol (50 μM). RAW macrophages were treated with 1 μM, 5 μM, and 10 μM of Suprastat overnight before collecting the lysates for immunoblot assay. Cytotoxicity assay was performed using CellTox Green (Promega, Cat #G8731) following the manufacturer's instructions, and fluorescence readings were obtained on Spectramax i3 (Molecular Devices) multimode plate reader at wavelengths EX 485 nm and EM 520 nm. SM1 cells were treated with compounds at various concentrations for 24 h to determine cytotoxicity.

SMILES	levels of Ac-α-tubulin in RAW 264.7 macrophages [1]	tumor burden (tumor volume) [2]	expression of IL10 gene [3]	Y705 phosphorylation of STAT3 [4]	levels of acetylated α-tubulin (Ac-α-tubulin) [5]	concentration at which cytotoxicity starts [6] [µM]
NCc1ccc(NC(=O)N(CCCCO)Cc2ccc(C(=O)NO)cc2)cc1 [Compound 6a, 4-((3-(4-(Aminomethyl)phenyl)-1-(4-hydroxybutyl)ureido)methyl)-N-hydroxybenz-amide]	dose-dependent effect; also recorded: dose-dependent increase in the levels of Ac-α-tubulin	reduced the tumor burden	decreased expression of IL10 gene	decreased Y705 phosphorylation of STAT3	highest Ac-α-tubulin level	–
CCCCN(Cc1ccc(C(=O)NO)cc1)C(=O)Nc1ccc(CN)cc1 [Compound 6b, 4-((3-(4-(Aminomethyl)phenyl)-1-butylureido)methyl)-N-hydroxybenzamide]	–	–	–	–	–	10
